Assay results published in paper PMC6332026, “Synthesis and Pharmacochemistry of New Pleiotropic Pyrrolyl Derivatives” (Molecules, 2015).

Experiments:
[1] = Interaction with the stable free radical DPPH (reducing activity); conditions: 1000 μM compound, DPPH 50 μM
COX-1 = COX-1 (Homo sapiens, UniProt P23219); assay: Inhibition of COX-1 (preliminary results); type: biochemical
Text: More experiments are in progress to delineate accurately the inhibition profile.

COX-1, sequence (P23219 24-599): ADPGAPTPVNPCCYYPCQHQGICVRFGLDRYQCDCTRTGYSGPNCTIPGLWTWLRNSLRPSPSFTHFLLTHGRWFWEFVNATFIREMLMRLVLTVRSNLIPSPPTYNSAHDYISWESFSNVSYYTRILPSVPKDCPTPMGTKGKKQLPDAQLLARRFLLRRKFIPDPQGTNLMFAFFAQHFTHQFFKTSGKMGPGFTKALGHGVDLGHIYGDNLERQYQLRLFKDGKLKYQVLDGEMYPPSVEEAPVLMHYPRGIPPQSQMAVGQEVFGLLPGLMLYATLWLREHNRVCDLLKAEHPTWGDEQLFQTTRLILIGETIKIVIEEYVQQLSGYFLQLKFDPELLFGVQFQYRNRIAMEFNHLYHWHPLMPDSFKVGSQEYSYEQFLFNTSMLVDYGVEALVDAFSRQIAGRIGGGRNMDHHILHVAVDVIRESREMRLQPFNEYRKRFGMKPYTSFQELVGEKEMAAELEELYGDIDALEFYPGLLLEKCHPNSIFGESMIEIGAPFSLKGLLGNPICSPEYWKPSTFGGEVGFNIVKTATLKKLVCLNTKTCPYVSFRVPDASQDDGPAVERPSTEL

| SMILES | RA % (interaction with DPPH) ([1]; 20 min) | RA % (interaction with DPPH) ([1]; 60 min) | inhibition at 100 µM (COX-1) |
| --- | --- | --- | --- |
| O=C(c1cccs1)c1c[nH]cc1-c1ccc(OCc2ccc(Br)cc2)cc1 [Compound 2iii, (4-{4-[(4-Bromobenzyl)oxy]phenyl}-1H-pyrrol-3-yl)(thien-2-yl)methanone] | 4% | 5% | 75% |
| O=C(c1ccccc1)c1c[nH]cc1-c1cccc2ccccc12 [Compound 2iv, [4-(Naphth-1-yl)-1H-pyrrol-3-yl](phenyl)methanone] | 8% | 10% | – |
| O=C(c1ccc(Cl)cc1)c1c[nH]cc1-c1cccc2ccccc12 [Compound 2v, (4-Chlorophenyl)[4-(naphth-1-yl)-1H-pyrrol-3-yl]methanone] | – | – | 75% |
